# PubChem BioAssay (NCI)
#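 Growth conditions: 96-well plates. Treatment: test compound, 48 hours, 5 concentrations. Analysis: linear interpolation between bracketing concentrations; unreached endpoints set to highest concentration. TGI marks complete inhibition of growth.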
# Columns and labels:
# Assay in all cases: NCI anticancer screen, dose series, 48 h
# HCC-2998 colon = system: HCC-2998 colon
# UACC-257 melanoma = system: UACC-257 melanoma
# NCI-H460 lung = system: NCI-H460 lung
# TK-10 renal = system: TK-10 renal
# HOP-92 NSCLC = system: HOP-92 NSCLC
# HOP-62 NSCLC = system: HOP-62 NSCLC
# RPMI-8226 leukemia = system: RPMI-8226 leukemia
# UACC-62 melanoma = system: UACC-62 melanoma
# 786-0 renal = system: 786-0 renal
# MOLT-4 leukemia = system: MOLT-4 leukemia
# SK-MEL-2 melanoma = system: SK-MEL-2 melanoma
# SR leukemia = system: SR leukemia
# SF-268 CNS = system: SF-268 CNS
# OVCAR-5 ovarian = system: OVCAR-5 ovarian
# CAKI-1 renal = system: CAKI-1 renal
# IGROV1 ovarian = system: IGROV1 ovarian
# RXF 393 renal = system: RXF 393 renal
# LOX IMVI melanoma = system: LOX IMVI melanoma
# DMS 273 small cell lung = system: DMS 273 small cell lung
# SN12C renal = system: SN12C renal
# K-562 leukemia = system: K-562 leukemia
# HCT-15 colon = system: HCT-15 colon
# ACHN renal = system: ACHN renal
# HOP-18 NSCLC = system: HOP-18 NSCLC
# NCI-H226 lung = system: NCI-H226 lung
# NCI-H522 lung = system: NCI-H522 lung
# SNB-78 CNS = system: SNB-78 CNS
# UO-31 renal = system: UO-31 renal
# A549 NSCLC = system: A549 NSCLC
# HL-60(TB) leukemia = system: HL-60(TB) leukemia
# COLO 205 colon = system: COLO 205 colon
# OVCAR-3 ovarian = system: OVCAR-3 ovarian
# OVCAR-8 ovarian = system: OVCAR-8 ovarian
# SNB-75 CNS = system: SNB-75 CNS
# SK-MEL-28 melanoma = system: SK-MEL-28 melanoma
# SF-539 CNS = system: SF-539 CNS
# DLD-1 colon = system: DLD-1 colon
# M14 melanoma = system: M14 melanoma
# SW-620 colon = system: SW-620 colon
# SF-295 CNS = system: SF-295 CNS
# LXFL 529 NSCLC = system: LXFL 529 NSCLC
# HT29 colon = system: HT29 colon
# U251 CNS = system: U251 CNS
# XF 498 CNS = system: XF 498 CNS
# HCT-116 colon = system: HCT-116 colon
# MALME-3M melanoma = system: MALME-3M melanoma
# SNB-19 CNS = system: SNB-19 CNS
# EKVX NSCLC = system: EKVX NSCLC
# KM12 colon = system: KM12 colon
# CCRF-CEM leukemia = system: CCRF-CEM leukemia
# DMS 114 small cell lung = system: DMS 114 small cell lung
# KM20L2 colon = system: KM20L2 colon
# M19-MEL melanoma = system: M19-MEL melanoma
# NCI-H23 lung = system: NCI-H23 lung
# A498 renal = system: A498 renal
# OVCAR-4 ovarian = system: OVCAR-4 ovarian
# SK-OV-3 ovarian = system: SK-OV-3 ovarian
# SK-MEL-5 melanoma = system: SK-MEL-5 melanoma
# RXF-631 renal = system: RXF-631 renal
structure (smiles),measurement,setting,value
CC1=C(C(=O)Nc2ccccc2C)C(c2ccc(C3C(C(=O)Nc4ccccc4C)=CNC=C3C(=O)Nc3ccccc3C)cc2)C(C(=O)Nc2ccccc2C)=C(C)N1,TGI,HCC-2998 colon,31.8 µM
same,TGI,UACC-257 melanoma,33.2 µM
same,TGI,NCI-H460 lung,48 µM
same,TGI,TK-10 renal,> 100 µM
same,TGI,HOP-92 NSCLC,46.4 µM
same,TGI,HOP-62 NSCLC,48.7 µM
same,TGI,RPMI-8226 leukemia,> 73 µM
same,TGI,UACC-62 melanoma,31.9 µM
same,TGI,786-0 renal,29.3 µM
same,TGI,MOLT-4 leukemia,> 40.3 µM
same,TGI,SK-MEL-2 melanoma,31.6 µM
same,TGI,SR leukemia,16.7 µM
same,TGI,SF-268 CNS,17.4 µM
same,TGI,OVCAR-5 ovarian,44.4 µM
same,TGI,CAKI-1 renal,45.7 µM
same,TGI,IGROV1 ovarian,37.1 µM
same,TGI,RXF 393 renal,85.1 µM
same,TGI,LOX IMVI melanoma,21.7 µM
same,TGI,DMS 273 small cell lung,47.3 µM
same,TGI,SN12C renal,21.9 µM
same,TGI,K-562 leukemia,> 73.4 µM
same,TGI,HCT-15 colon,41 µM
same,TGI,ACHN renal,30.6 µM
same,TGI,HOP-18 NSCLC,> 76 µM
same,TGI,NCI-H226 lung,33.5 µM
same,TGI,NCI-H522 lung,18.9 µM
same,TGI,SNB-78 CNS,96.4 µM
same,TGI,UO-31 renal,40 µM
same,TGI,A549 NSCLC,> 100 µM
same,TGI,HL-60(TB) leukemia,29.9 µM
same,TGI,COLO 205 colon,50.1 µM
same,TGI,OVCAR-3 ovarian,39.5 µM
same,TGI,OVCAR-8 ovarian,> 74.8 µM
same,TGI,SNB-75 CNS,54.8 µM
same,TGI,SK-MEL-28 melanoma,36.3 µM
same,TGI,SF-539 CNS,19.6 µM
same,TGI,DLD-1 colon,37.4 µM
same,TGI,M14 melanoma,33 µM
same,TGI,SW-620 colon,32.6 µM
same,TGI,SF-295 CNS,37.7 µM
same,TGI,LXFL 529 NSCLC,26.6 µM
same,TGI,HT29 colon,29.3 µM
same,TGI,U251 CNS,24.7 µM
same,TGI,XF 498 CNS,41.6 µM
same,TGI,HCT-116 colon,> 49.7 µM
same,TGI,MALME-3M melanoma,38.9 µM
same,TGI,SNB-19 CNS,49.1 µM
same,TGI,EKVX NSCLC,40.7 µM
same,TGI,KM12 colon,29.2 µM
same,TGI,CCRF-CEM leukemia,> 29 µM
same,TGI,DMS 114 small cell lung,> 60.5 µM
same,TGI,KM20L2 colon,28.6 µM
same,TGI,M19-MEL melanoma,> 57.3 µM
same,TGI,NCI-H23 lung,36.5 µM
same,TGI,A498 renal,41.7 µM
same,TGI,OVCAR-4 ovarian,22 µM
same,TGI,SK-OV-3 ovarian,> 58.2 µM
same,TGI,SK-MEL-5 melanoma,17.8 µM
COc1cc2c(cc1O)C(C)Cc1cc3c(cc1N(C)CC2)OCO3 (configuration not stated),TGI,HCC-2998 colon,19.5 µM
same,TGI,UACC-257 melanoma,> 47.2 µM
same,TGI,NCI-H460 lung,37.7 µM
same,TGI,TK-10 renal,> 91.4 µM
same,TGI,HOP-92 NSCLC,18 µM
same,TGI,HOP-62 NSCLC,36.8 µM
same,TGI,RPMI-8226 leukemia,> 33.9 µM
same,TGI,UACC-62 melanoma,12 µM
same,TGI,786-0 renal,17.4 µM
same,TGI,MOLT-4 leukemia,36.5 µM
same,TGI,RXF-631 renal,> 59 µM
same,TGI,SK-MEL-2 melanoma,38.1 µM
same,TGI,SR leukemia,> 100 µM
same,TGI,SF-268 CNS,36.2 µM
same,TGI,OVCAR-5 ovarian,54.9 µM
same,TGI,CAKI-1 renal,> 74.3 µM
same,TGI,IGROV1 ovarian,73.3 µM
same,TGI,RXF 393 renal,9.48 µM
same,TGI,LOX IMVI melanoma,18.1 µM
same,TGI,DMS 273 small cell lung,13 µM
same,TGI,SN12C renal,18.3 µM
same,TGI,K-562 leukemia,> 27.9 µM
same,TGI,HCT-15 colon,42.7 µM
same,TGI,ACHN renal,74.1 µM
same,TGI,HOP-18 NSCLC,90.9 µM
same,TGI,NCI-H226 lung,19.3 µM
same,TGI,NCI-H522 lung,4.94 µM
same,TGI,SNB-78 CNS,42.3 µM
same,TGI,UO-31 renal,37.8 µM
same,TGI,A549 NSCLC,32.6 µM
same,TGI,HL-60(TB) leukemia,> 58.8 µM
same,TGI,COLO 205 colon,> 58.8 µM
same,TGI,OVCAR-3 ovarian,8.83 µM
same,TGI,OVCAR-8 ovarian,37.5 µM
same,TGI,SNB-75 CNS,9 µM
same,TGI,SK-MEL-28 melanoma,45.8 µM
same,TGI,SF-539 CNS,8.8 µM
same,TGI,DLD-1 colon,42.7 µM
same,TGI,M14 melanoma,19 µM
same,TGI,SW-620 colon,> 56.4 µM
same,TGI,SF-295 CNS,10.3 µM
same,TGI,LXFL 529 NSCLC,> 95.6 µM
same,TGI,HT29 colon,29.7 µM
same,TGI,U251 CNS,14.8 µM
same,TGI,XF 498 CNS,20.4 µM
same,TGI,HCT-116 colon,> 35.2 µM
same,TGI,MALME-3M melanoma,20.1 µM
same,TGI,SNB-19 CNS,> 87.4 µM
same,TGI,EKVX NSCLC,> 34.9 µM
same,TGI,KM12 colon,17.8 µM
same,TGI,CCRF-CEM leukemia,> 46.8 µM
same,TGI,DMS 114 small cell lung,> 21.9 µM
same,TGI,KM20L2 colon,26.9 µM
same,TGI,M19-MEL melanoma,> 40.8 µM
same,TGI,NCI-H23 lung,20.3 µM
same,TGI,A498 renal,39.5 µM
same,TGI,OVCAR-4 ovarian,> 65.2 µM
same,TGI,SK-OV-3 ovarian,22.8 µM
same,TGI,SK-MEL-5 melanoma,10 µM
